Converted amounts (≈) assume the structure as drawn.
How the values were obtained:
Assay in all cases: ≥ marks a high value that may be exact or a test limit, other limits are often not marked, values filed in µg/mL are converted to µM
[1] = system: Mannheimia haemolytica 82-25
Fusarium oxysporum = system: Fusarium oxysporum
Micrococcus luteus = system: Micrococcus luteus
Escherichia coli SBS 363 = system: Escherichia coli SBS 363
[2] = system: Staphylococcus aureus ATCC 25923
[3] = system: Bordetella bronchiseptica CUN 11844-99
[4] = system: Escherichia coli ATCC 25922
[5] = system: Pseudomonas aeruginosa CUN 4158-02
[6] = system: Staphylococcus epidermidis
Streptococcus uberis = system: Streptococcus uberis
Bacillus cereus = system: Bacillus cereus
Pasteurella multocida = system: Pasteurella multocida
Escherichia coli = system: Escherichia coli
Staphylococcus aureus = system: Staphylococcus aureus
Leuconostoc lactis = system: Leuconostoc lactis
Listeria innocua = system: Listeria innocua
[7] = system: Streptococcus sanguinis NY101
[8] = system: Lacticaseibacillus casei ATCC 4646
Streptococcus mutans = system: Streptococcus mutans
[9] = system: Veillonella atypica PK1910
[10] = system: Streptococcus gordonii Challis DL1
[11] = system: Pseudomonas aeruginosa PAK
[12] = system: Streptococcus mitis ATCC 903
[13] = system: Pseudomonas aeruginosa ATCC 27853
[14] = system: Salmonella enterica subsp. enterica serovar Typhimurium ATCC 14028
Escherichia coli K88 = system: Escherichia coli K88
[15] = system: Bacillus cereus CGMCC 1.932
Escherichia coli UB1005 = system: Escherichia coli UB1005
[16] = system: Salmonella typhimurium ATCC 7731
[17] = system: Enterococcus faecalis ATCC 29212
Escherichia coli 078 = system: Escherichia coli 078
[18] = system: Listeria monocytogenes CGMCC 1.1075
[19] = system: Bacillus subtilis CMCC 63501
Acinetobacter baumannii = system: Acinetobacter baumannii
[20] = system: Staphylococcus epidermidis ATCC 12228
[21] = system: Pseudomonas aeruginosa PAO1
Escherichia coli K99 = system: Escherichia coli K99
[22] = system: Salmonella enterica subsp. enterica serovar Pullorum ATCC 7913
[23] = system: Staphylococcus aureus ATCC 43300

`C[C@H](N)C(=O)N[C@@H](CC(=O)O)C(=O)N[C@@H](CC(=O)O)C(=O)N[C@@H](CC(=O)O)C(=O)N[C@@H](CC(=O)O)C(=O)N[C@@H](CC(=O)O)C(=O)N[C@@H](CC(=O)O)C(=O)O` [ADDDDDD] gave an MIC [1] of no less than 50 µM.
For `NCC(=O)N[C@@H](CC(=O)O)C(=O)N[C@@H](CC(=O)O)C(=O)N[C@@H](CC(=O)O)C(=O)N[C@@H](CC(=O)O)C(=O)N[C@@H](CC(=O)O)C(=O)N[C@@H](CC(=O)O)C(=O)O` [GDDDDDD], the MIC [1] was no less than 60 µM.
In the case of `CC[C@H](C)[C@H](NC(=O)[C@@H]1CCCN1C(=O)[C@H](CC(C)C)NC(=O)[C@H](Cc1ccc(O)cc1)NC(=O)[C@H](CCCCN)NC(=O)[C@H](CCCCN)NC(=O)[C@H](CC(C)C)NC(=O)[C@H](C)NC(=O)[C@H](CO)NC(=O)[C@H](CC(C)C)NC(=O)[C@H](Cc1ccccc1)NC(=O)CN)C(=O)N[C@H](C(=O)N[C@@H](CC(C)C)C(=O)N[C@@H](CCCCN)C(=O)N[C@@H](Cc1cnc[nH]1)C(=O)N[C@H](C(=O)O)C(C)C)C(C)C` [GFLSALKKYLPIVLKHV], the MIC (Fusarium oxysporum) was 0.78 µM (≈ 1.5 µg/mL), the MIC (Micrococcus luteus) was 1.56 µM (≈ 3.01 µg/mL) and the MIC (Escherichia coli SBS 363) was 3.12 µM (≈ 6.02 µg/mL).
For `CC(C)C[C@H](NC(=O)CNC(=O)[C@H](CCCCN)NC(=O)[C@H](Cc1ccccc1)NC(=O)[C@H](CCCCN)NC(=O)[C@H](Cc1c[nH]c2ccccc12)NC(=O)[C@H](CCCN=C(N)N)NC(=O)[C@H](Cc1ccccc1)NC(=O)[C@H](CCCN=C(N)N)NC(=O)[C@H](CCCN=C(N)N)NC(=O)[C@H](Cc1ccc(O)cc1)NC(=O)[C@H](CCCCN)NC(=O)[C@H](CCCCN)NC(=O)CN)C(=O)N[C@@H](Cc1ccccc1)C(=O)N[C@@H](CC(C)C)C(=O)N[C@@H](Cc1ccccc1)C(=O)N[C@@H](CC(C)C)C(=O)NCC(N)=O` [GKKYRRFRWKFKGLFLFLG], the MIC [2] was 26.1 µM (≈ 64 µg/mL), the MIC [3] was 6.54 µM (≈ 16 µg/mL) and the MIC [4] was 26.1 µM (≈ 64 µg/mL). For the same compound, the MIC [5] was 26.1 µM (≈ 64 µg/mL).
Compound `CC[C@H](C)[C@H](NC(=O)[C@@H](NC(=O)[C@H](C)NC(=O)[C@H](C)NC(=O)[C@@H](NC(=O)[C@H](CCCCN)NC(=O)[C@H](CCCCN)NC(=O)[C@@H](NC(=O)[C@@H](NC(=O)[C@H](CC(=O)O)NC(=O)[C@H](Cc1ccccc1)NC(=O)[C@H](CC(C)C)NC(=O)CN)C(C)C)[C@@H](C)CC)C(C)C)C(C)C)C(=O)NCC(=O)NCC(=O)N[C@@H](CC(C)C)C(N)=O` [GLFDVIKKVAAVIGGL] has an MIC [6] of 15.6 µM (≈ 25 µg/mL), an MIC (Streptococcus uberis) of 15.6 µM (≈ 25 µg/mL) and an MIC (Bacillus cereus) of 31.3 µM (≈ 50 µg/mL). For the same compound, the MIC (Pasteurella multocida) was no less than 62.5 µM, the MIC (Micrococcus luteus) was 7.5 µM (≈ 12 µg/mL) and the MIC (Escherichia coli) was greater than 62.5 µM. The MIC (Staphylococcus aureus) was 15.6 µM (≈ 25 µg/mL), the MIC (Leuconostoc lactis) was 3.75 µM (≈ 6 µg/mL) and the MIC (Listeria innocua) was no less than 62.5 µM.
Work on `CC[C@H](C)[C@H](NC(=O)CNC(=O)[C@H](CCC(=O)O)NC(=O)[C@@H](NC(=O)[C@@H](NC(=O)CNC(=O)[C@H](CO)NC(=O)[C@H](C)NC(=O)[C@H](CC(C)C)NC(=O)[C@H](CC(=O)O)NC(=O)CNC(=O)[C@H](C)NC(=O)[C@H](C)NC(=O)[C@H](CCC(N)=O)NC(=O)[C@H](CCCCN)NC(=O)[C@@H](NC(=O)[C@H](CCCCN)NC(=O)[C@H](CCC(N)=O)NC(=O)[C@H](Cc1c[nH]c2ccccc12)NC(=O)[C@H](CC(C)C)NC(=O)CN)[C@@H](C)CC)[C@@H](C)CC)C(C)C)C(=O)N[C@@H](CCCCN)C(=O)N[C@@H](CO)C(N)=O` [GLWQKIKQAAGDLASGIVEGIKS] yielded an MIC [6] of no less than 42.2 µM, an MIC (Streptococcus uberis) of no less than 42.2 µM and an MIC (Bacillus cereus) of no less than 42.2 µM. The MIC (Pasteurella multocida) was no less than 42.2 µM, the MIC (Micrococcus luteus) was 10.5 µM (≈ 25 µg/mL) and the MIC (Escherichia coli) was 21.1 µM (≈ 50 µg/mL). For the same compound, the MIC (Staphylococcus aureus) was greater than 42.2 µM, the MIC (Leuconostoc lactis) was no less than 42.2 µM and the MIC (Listeria innocua) was no less than 42.2 µM.
Work on `CC[C@H](C)[C@H](N)C(=O)N[C@@H](CCCCN)C(=O)N[C@@H](CCC(N)=O)C(=O)N[C@@H](CC(C)C)C(=O)N[C@@H](CC(C)C)C(=O)N[C@@H](Cc1cnc[nH]1)C(=O)N[C@@H](Cc1ccccc1)C(=O)N[C@@H](Cc1ccccc1)C(=O)N[C@@H](CCC(N)=O)C(=O)N[C@@H](CCCN=C(N)N)C(=O)N[C@@H](Cc1ccccc1)C(N)=O` [IKQLLHFFQRF] yielded an MIC [7] of no less than 42.8 µM, an MIC [8] of 21.7 µM (≈ 32 µg/mL) and an MIC (Streptococcus mutans) of 16.3 µM (≈ 24 µg/mL). The MIC [9] was no less than 43.3 µM, the MIC [10] was 21.7 µM (≈ 32 µg/mL) and the MIC (Staphylococcus aureus) was 42.3 µM (≈ 62.5 µg/mL). For the same compound, the MIC [11] was no less than 42.3 µM and the MIC [12] was no less than 42.8 µM.
With `NC(=O)[C@H](Cc1ccccc1)NC(=O)[C@H](Cc1c[nH]c2ccccc12)NC(=O)[C@H](Cc1c[nH]c2ccccc12)NC(=O)[C@H](Cc1c[nH]c2ccccc12)NC(=O)[C@H](CCCN=C(N)N)NC(=O)[C@H](CCCN=C(N)N)NC(=O)[C@@H](N)CCCN=C(N)N` [RRRWWWF] the MIC [7] was 13.4 µM (≈ 16 µg/mL), the MIC [8] was 13.4 µM (≈ 16 µg/mL) and the MIC (Streptococcus mutans) was 4.74 µM (≈ 5.65 µg/mL). It also gave an MIC [9] of no less than 53.7 µM, an MIC [10] of 26.8 µM (≈ 32 µg/mL) and an MIC [12] of 26.8 µM (≈ 32 µg/mL).
`NC(=O)[C@H](Cc1c[nH]c2ccccc12)NC(=O)[C@H](CCCN=C(N)N)NC(=O)[C@H](Cc1c[nH]c2ccccc12)NC(=O)[C@H](CCCN=C(N)N)NC(=O)[C@H](Cc1c[nH]c2ccccc12)NC(=O)[C@H](Cc1c[nH]c2ccccc12)NC(=O)[C@H](Cc1c[nH]c2ccccc12)NC(=O)[C@H](CCCN=C(N)N)NC(=O)[C@H](Cc1c[nH]c2ccccc12)NC(=O)[C@@H](N)CCCN=C(N)N` [RWRWWWRWRW] showed an MIC [13] of 32 µM (≈ 56.3 µg/mL), an MIC [14] of 8 µM (≈ 14.1 µg/mL) and an MIC [2] of 2 µM (≈ 3.52 µg/mL). It also gave an MIC (Escherichia coli K88) of 2 µM (≈ 3.52 µg/mL), an MIC [15] of 4 µM (≈ 7.04 µg/mL) and an MIC (Escherichia coli UB1005) of 4 µM (≈ 7.04 µg/mL). The MIC [16] was 8 µM (≈ 14.1 µg/mL), the MIC [17] was 4 µM (≈ 7.04 µg/mL) and the MIC (Escherichia coli 078) was 2 µM (≈ 3.52 µg/mL). It also gave an MIC [18] of 1 µM (≈ 1.76 µg/mL), an MIC [19] of 8 µM (≈ 14.1 µg/mL) and an MIC (Acinetobacter baumannii) of 2 µM (≈ 3.52 µg/mL). For the same compound, the MIC [20] was 2 µM (≈ 3.52 µg/mL), the MIC [21] was 4 µM (≈ 7.04 µg/mL) and the MIC (Escherichia coli K99) was 8 µM (≈ 14.1 µg/mL). The MIC [22] was 4 µM (≈ 7.04 µg/mL) and the MIC [23] was 2 µM (≈ 3.52 µg/mL).

— DBAASP
